These results are taken from BindingDB's records for doi:10.1021/acschembio.6b00555 (University of Nebraska-Lincoln, 2016).

The Kd is a measure of binding affinity in units of concentration.

What all share (test): Fluorescence Polarization Assay
Conditions in all cases: pH 7.35
A general note: Fluorescence polarisation rises when a labelled molecule tumbles more slowly, as on binding a larger partner.

In test [1] the target is T1, Tyrosine-protein kinase transforming protein Src [144-247,E177R,S178L,E179Q,T180R,T181V,C186A,K201L] (Rous sarcoma virus subgroup B (strain Schmidt-Ruppin), UniProt P63185, C186A/E177R/E179Q/K201L/S178L/T180R/T181V).
T1 construct: 144-247
T1 sequence (P63185 144-247 E176R/S177L/E178Q/T179R/T180V/C185A/K200L): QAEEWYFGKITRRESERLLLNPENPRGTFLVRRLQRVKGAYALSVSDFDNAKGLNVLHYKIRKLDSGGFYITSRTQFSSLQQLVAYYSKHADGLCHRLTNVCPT
Here is the method: (§1) Three fluorescein-labeled peptide probes, FITC-sulfopeptide, FITC-phosphopeptide, and FITC-tyrosinepeptide (FITC, fluorescein isothiocyanate), were used. Individual peptide probes were dissolved in assay buffer containing potassium phosphate (20 mM, pH 7.35), NaCl (100 mM), DTT (2 mM), and bovine gamma globulin (0.1%). Aliquots of the peptide probe solution were distributed to 96-well fluorescence plate to reach a final concentration of 10 nM. After the addition of indicated amounts of SH2 domain protein, the assay solutions were mixed and incubated at RT in the dark for 25 min. Fluorescence polarization experimentswere performed on a Synergy H1 plate reader (BioTek Instruments, Inc.) equipped with standard filter cube (λEx = 485 nm, BP = 20 nm; λEm = 528 nm, BP = 20 nm). A standard sample layout in a 96-well plate was designed so that a single plate contains all the samples for one SH2 domain variant. Triplicate samples at each protein concentration were arrayed in the plat

The target of test [2] is T2, Tyrosine-protein kinase transforming protein Src [144-247,T181V,C186A,K201L] (Rous sarcoma virus subgroup B (strain Schmidt-Ruppin), UniProt P63185, C186A/K201L/T181V).
T2 construct: 144-247
T2 sequence (P63185 144-247 T180V/C185A/K200L): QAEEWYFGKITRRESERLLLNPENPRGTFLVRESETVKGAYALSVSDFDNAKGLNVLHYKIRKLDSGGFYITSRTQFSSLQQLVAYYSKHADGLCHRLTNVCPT
As for the experimental part:
as §1

Test [3] addresses T3, Tyrosine-protein kinase transforming protein Src [144-247] (Rous sarcoma virus subgroup B (strain Schmidt-Ruppin), UniProt P00524).
T3 construct: 144-247
Here is the method: as §1

The target in test [4] is T4, Tyrosine-protein kinase transforming protein Src [144-247,E177Q,S178L,E179A,T180R,T181V,C186A,K201L] (Rous sarcoma virus subgroup B (strain Schmidt-Ruppin), UniProt P63185, C186A/E177Q/E179A/K201L/S178L/T180R/T181V).
T4 construct: 144-247
T4 sequence (P63185 144-247 E176Q/S177L/E178A/T179R/T180V/C185A/K200L): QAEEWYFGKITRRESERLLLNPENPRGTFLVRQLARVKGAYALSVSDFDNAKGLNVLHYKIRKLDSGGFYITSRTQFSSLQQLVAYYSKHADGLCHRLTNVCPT
Here is the method:
as §1

T3 sequence (P00524 144-247): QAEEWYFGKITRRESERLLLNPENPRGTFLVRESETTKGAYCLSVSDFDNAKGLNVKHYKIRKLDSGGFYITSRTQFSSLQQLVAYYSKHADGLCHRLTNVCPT

On to `N[C@@H](Cc1ccc(OS(=O)(=O)O)cc1)C(=O)O` [Sulfotyrosine (sTyr)], for which the Kd in test [1] is 5.6 nM; in test [2], 349 nM; in test [3], 9620 nM; in test [4], 10.4 nM.

As for `N[C@@H](Cc1ccc(OP(=O)(O)O)cc1)C(=O)O` [Phosphotyrosine (pTyr)], the Kd in test [1] worked out at 2.5 nM; in test [2], 4.9 nM; in test [3], 61 nM; in test [4], 7.7 nM.
